Here are results for two compounds from patent publication US20200078303A1, “PHARMACEUTICAL FORMULATIONS OF SUVOREXANT” (Druggability Technologies IP HoldCo Ltd., priority 2016, published 2020).

Data set [1] can be described thus: Rat oral pharmacokinetics at 3 mg/kg. The class given is in vivo. Particulars: fasted rats. The method, then: A rat study with oral administration at 3 mg/kg was performed. Two pharmaceutical formulations of the present invention, the crystalline compound and crushed BELSOMRA® tablets were administered and plasma concentrations were measured. Absorption following the administration of the pharmaceutical formulations of the present invention was immediate, while absorption for the crystalline and BELSOMRA® were slower.

The conditions of data set [2]: cited from earlier work.
The subject of the next data set is human plasma proteins. To be noted: cited from earlier work.

A value given as a limit tells only on which side of the number the result lay.

With `Cc1ccc(-n2nccn2)c(C(=O)N2CCN(c3nc4cc(Cl)ccc4o3)CC[C@H]2C)c1` [crystalline compound], in data set [1], the “absorption after oral administration (in words)” value is on record as “slower”.

For the compound `Cc1ccc(-n2nccn2)c(C(=O)N2CCN(c3nc4cc(Cl)ccc4o3)CC[C@H]2C)c1` [Suvorexant, [(7R)-4-(5-chloro-2-benzoxazolyl)hexahydro-7-methyl-1H-1,4-diazepin-1-yl][5-methyl-2-(2H-1,2,3-triazol-2-yl)phenyl]methanone], in data set [2] (10 mg), the mean absolute bioavailability was 82%. Besides, in data set [2] (95% CI: 12 to 13), the “mean t½” value is given as “approximately 12 hours”. In addition, in data set [2] (fasted conditions), the median tmax is 2 h and the tmax range was 0.5 to 6 h. In data set [2] (high-fat meal), the “change in AUC or Cmax with high-fat meal” value is on record as “no meaningful change” and the “delay in tmax with high-fat meal” value was “approximately 1.5 hours”. Besides, in data set [2] (human, in vivo), the “mean volume of distribution” value is given as “approximately 49 liters”, the “radiolabeled dose recovered in the feces” value is “approximately 66%” and the “radiolabeled dose recovered in the urine” value is listed as 23%. Also, in data set [2] (once-daily dosing), the accumulation is recorded as 1- to 2 fold and the time to steady-state is recorded as at most 3 days. In data set [2] (range of 10-80 mg), the “dose proportionality of exposure” value is “less than strictly dose-proportional”. Moreover, the “bound to human plasma proteins” value in the data set with human plasma proteins was over 99%.
